Results as given in patent publication US20250212876A1, “METHOD FOR CONTROLLING PLANT DISEASES” (SUMITOMO CHEMICAL COMPANY, LIMITED, priority 2022, published 2025).

Tests used:
Assay type in all cases: cell-based
[1] = test system: Peach scab fungus (Cladosporium carpophilum); assay: Test Example 5: control test against peach scab fungus, titer plate growth; conditions: 150 ppm in DMSO, 1 μL + 150 μL PDB broth; 18° C., 5 days; absorbance at 550 nm
Protocol: (§1) The untreated groups in the Test Example 3, the Test Example 5 and the Test Example 6 represents a treated group in which the procedures are carried out under the same conditions as those described in each of Test Examples except that DMSO is dispensed in place of a diluted DMSO solution containing the Present compound. The untreated groups in the Test Example 7 and the Test Example 15 represents a test in which the procedures are carried out under the same conditions as those described in each of the Test Examples except that DMSO is dispensed in place of a diluted DMSO solution containing the present compound. […]
(§2) The present compound 77 was diluted with DMSO so as to contain 150 ppm, and 1 μL of the dilution solutions were dispensed into titer plate (96 well), and thereafter, thereto was then dispensed 150 μL of a potato dextrose broth (PDB broth) to which conidia of Cladosporium carpophilum were inoculated in advance. This plate was cultured at 18° C. for 5 days, thereby allowing Cladosporium carpophilum to undergo proliferation, and the absorbance at 550 nm of each well of the titer plate was then measured to determine a degree of growth of the Cladosporium carpophilum.

[2] = test system: Barley scald fungus (Rhynchosporium secalis); assay: Test Example 3: control test against barley scald fungus, titer plate growth; conditions: 150 ppm in DMSO, 1 μL + 150 μL PDB broth; 18° C., 7 days; absorbance at 550 nm
Protocol: as §1
as §2, with “of Rhynchosporium secalis” for “of Cladosporium carpophilum”, “for 7” for “for 5”, “allowing Rhynchosporium secalis” for “allowing Cladosporium carpophilum”, “the Rhynchosporium secalis.” for “the Cladosporium carpophilum.”

[3] = test system: Rice brown spot fungus (Cochliobolus miyabeanus); assay: Test Example 6: control test against rice brown spot fungus, titer plate growth; conditions: 150 ppm in DMSO, 1 μL + 150 μL YB liquid medium; 23° C., 3 days; absorbance at 550 nm
Protocol: The untreated groups in the Test Example 3, the Test Example 5 and the Test Example 6 represents a treated group in which the procedures are carried out under the same conditions as those described in each of Test Examples except that DMSO is dispensed in place of a diluted DMSO solution containing the Present compound. The untreated groups in the Test Example 7 and the Test Example 15 represents a test in which the procedures are carried out under the same conditions as those described in each of the Test Examples except that DMSO is dispensed in place of a diluted DMSO solution containing the present compound. Also, the untreated groups in the Test Example 8, the Test Example 9, the Test Example 10 and the Test Example 11 represents a test in which a diluted aqueous solution of the formulation containing the present compound isn't sprayed.
The present compound 77 was diluted with DMSO so as to contain 150 ppm, and 1 μL of the dilution solutions were dispensed into titer plate (96 well), and thereafter, thereto was then dispensed 150 μL of YB liquid medium to which conidia of Cochliobolus miyabeanus were inoculated in advance. This plate was cultured at 23° C. for 3 days, thereby allowing Cochliobolus miyabeanus to undergo proliferation, and the absorbance at 550 nm of each well of the titer plate was then measured to determine a degree of growth of the Cochliobolus miyabeanus.

Measured: growth in the treated well compared to the growth in an untreated well

O=S(=O)(c1cccc(-c2cc(F)c(Cl)c(F)c2)c1)c1ccncn1 [compound 77]
≤ 50%: all assays above
